The source of these data is patent US7033996B2, “Method for the treatment of vitamin D related disease” (University of Medicine & Dentistry of New Jersey, priority 2001, dated 2006).

“Also recorded” adds a separate entry of the source.

Assay [1] deals with C/EBPβ. Kind of assay: Northern analysis verifying C/EBPβ induction in kidney and osteoblastic cells. The assay is classed as cell-based.
The test system of assay [2] is C/EBPβ protein. Kind of assay: Western blot of C/EBPβ protein in primary murine osteoblasts. In kind it is cell-based.
From the text: Induction of C/EBPβ protein is examined by Western blot using nuclear extracts (antibody from Santa Cruz).
Assay [3] concerns C/EBPβ mRNA. Kind of assay: Time course of mRNA induction by Northern blot in UMR osteoblastic cells. In kind it is cell-based. To be noted: time course 0–24 h.
Assay [4] concerns 24(OH)ase mRNA. The assay is described as above. To be noted: time course 0–24 h. The assay is classed as cell-based.
The subject of assay [5] is hVDR promoter. Kind of assay: PKA mediated hVDR promoter (-1500/+60) luciferase transcription with cotransfected C/EBPβ. To be noted: JEG cells, 2 μg VDR promoter, 1 μg PKA expression vector, 5 μg C/EBPβ. The assay is classed as cell-based, human. The method, then:
FIG. 2 is an illustration of C/EBPβ enhancement of PKA mediated transcriptional activation of hVDR. 2 μg of the VDR promoter (−1500/+60) cotransfected in JEG cells with 1 μg of PKA expression vector in the presence or absence of 5 μg C/EBPβ.
cAMP or PTH induced enhancement of 24(OH)ase transcription is due at least in part to an upregulation of VDR. Since two putative C/EBPβ sites have been reported in the hVDR promoter (at −1490 and at −920; 143) the determination of the effect of C/EBPβ on VDR promoter activity is important. We have isolated the hVDR promoter fragment −1500/+60 by PCR and ligated it into the PGL-2 luciferase vector and found in our studies that C/EBPβ enhances PKA mediated transcription of the VDR (FIG. 2).

The test system of assay [6] is rat 24(OH)ase promoter. Kind of assay: 1,25(OH)2D3 induced 24(OH)ase promoter transcription with cotransfected C/EBPβ. To be noted: COS cells cotransfected with hVDR and C/EBPβ, 1,25(OH)2D3 for 24 h.

As for `C=C1/C(=C\C=C2/CCC[C@]3(C)[C@@H]([C@H](C)CCCC(C)(C)O)CC[C@@H]23)C[C@@H](O)C[C@@H]1O` [1,25(OH)2D3, 1,25-dihydroxyvitamin D3], the “induction of C/EBPβ by Northern analysis” value in assay [1] is given as “induction”. In assay [2], the “induction of C/EBPβ protein by Western blot” value is listed as “induction”. Also, the “first significant induction of C/EBPβ mRNA after treatment” value in assay [3] was 3 h. Besides, the “first significant induction of 24(OH)ase mRNA after treatment” value in assay [4] worked out at 9 h.

B1: C/EBPβ: CCAATT enhancer binding protein β, a transcription factor, supplied by pMEX C/EBPβ expression vector (protein, listed as Homo sapiens)
chain: APAPAPASSGQHHDFLSDLFSDDYGGKNCKKPAEYGYVSLGRLGAAKGAHPPPPPPPPPAELKAEPGFEPADCKRKEEAGAPGGGAGMAAGFPYALRAGSSGSLSTSSSSSPPGTPSPADAKAPPTACYAGAGPAPSQVKSKAKKTVRRERNNIAVRKSRDKAKMRNLETQHKVLELTAENERLQKKVEQLSRELSPEPLLASSGHC
With B1, the “effect of C/EBPβ on PKA mediated transcription of the VDR” value in assay [5] is “enhances”. The “effect of C/EBPβ on 1,25(OH)2D3 induced 24(OH)ase transcription” value in assay [6] is recorded as “markedly enhanced; also recorded: enhanced transcriptional response”.
